Measured values reported in patent US20160058712A1, “3-HYDROXYPTEROSTILBENE AND THERAPEUTIC APPLICATIONS THEREOF” (priority 2014, published 2016).

Assays:
COLO 205 cells [1] = experiment: MTT cell viability assay, COLO 205; assay type: cell-based; conditions: Homo sapiens, COLO205, MTT, 24 h
Method: (§1) The human colon cancer cell lines COLO 205, HCT116 and HT29 were purchased from the American Type Culture Collection (Rockville, Md.). Cell lines were grown in RPMI1640 supplemented with 10% heat inactivated fetal bovine serum (GIBCO BRL, Grand Island, N.Y.), 100 units/mL of penicillin, 100 μg/mL of streptomycin), 2 mM L-glutamine (GIBCO BRL, Grand Island, N.Y.), and were kept at 37° C. in a humidified 5% CO2 incubator. Pterostilbene and 3-HPT were dissolved in dimethyl sulfoxide (DMSO, as final concentration of 0.05%). Cells were treated with 0.05% DMSO as vehicle control.
(§2) Cell viability was assayed by 3(4,5-dimethylthiazol-2-yl)-2,5-diphenyltetrazolium bromide (MTT). Briefly. COLO 205, HCT116 and HT29 cells were plated at a density of 2×10^2 cells/mL into 96 well plates. After overnight growth, cells were treated with a series of concentrations of pterostilbene or 3-hydroxypterostilbene for 24 h. The final concentrations of DMSO in the culture medium were <0.05%. At the end of treatment, 0.2% MTT was added and cells were incubated for a further 4 h. Cell viability was determined by scanning with an ELISA reader with a 570 nm filter.

COLO 205 cells [2] = experiment: Mitochondrial membrane potential by DiOC6 flow cytometry; assay type: cell-based, human; conditions: COLO 205, 50 μM, 15 min; shifted from 224
Method: (§3) For mitochondrial membrane potential and ROS production, COLO 205 cells were treated as described under Example III for 15 min, and then DiOC6 [3,3′-dihexyloxacarbocyanine iodide] (40 nM) or DCFHDA [2′,7′-dichlorodihydrofluorescein diacetate] (20 μM) was added to the medium for a further 30 min at 37° C. After washing with PBS, the fluorescence intensity was determined by FAC Scan cytometry. The DiOC6 fluorescence intensity shifted to the left from 224 to 117 and 75 in pterostilbene and 3-HPT induced apoptotic COLO 205 cells, respectively. […] The role of ROS in the induction of apoptosis is well recognized. […] The imbalance of ROS concentrations could play an important role as an early mediator in 3-HPT induced apoptosis.

[3] = tested on: PC-3 (Human prostate cancer cell line); experiment: MTT cell viability assay, PC-3; assay type: cell-based; conditions: Homo sapiens; PC-3, MTT
Method: as §2
The MTT reaction explained in Para 0040 was also used to assess the cell viability of human prostate cancer cells (PC-3) in the presence of pterostilbene and 3-hydroxypterostilbene. The results (FIG. 1) are represented in Table II.

COLO 205 cells [4] = experiment: Flow cytometry analysis of subG1 cell population (PI staining); assay type: cell-based, human; conditions: 24 h
Method: For subG1 cell population analysis, COLO 205 cells (2×10^5 cells/mL) were cultured in 12 well and treatment with various concentrations of pterostilbene or 3-hydroxypterostilbene for 24 h. The cells were then harvested, washed with PBS, re-suspended in 200 μL of PBS, and fixed in 800 μL of iced 100% ethanol at […]. After being left to stand overnight, the cell pellets were collected by centrifugation, re-suspended in 1 mL of hypotonic buffer (0.5% Triton X100 in PBS and 0.5 μg/mL RNase) with PI (50 μg/mL) and incubated at 37° C. in the dark for 30 min. Fluorescence emitted from the PIDNA complex was quantitated after excitation of the fluorescent dye by FACScan cytometry (Becton Dickinson, San Jose, Calif.). […] The results indicated a higher apoptotic potential of 3-hydroxypterostilbene for COLO 205 cells.

COLO 205 cells [5] = experiment: ROS production by DCFHDA flow cytometry; assay type: cell-based, human; conditions: COLO 205, 50 μM, 15 min; from 114
Method: as §3

[6] = tested on: COLO 205 xenograft tumors; experiment: COLO 205 xenograft model; assay type: in vivo; conditions: 10 mg/kg/d i.p., 15 days, nude mice
Method: Male Balb/c nude mice at 3-4 weeks old (weighing 16-18 g) were obtained from the BioLASCO Experimental Animal Center (BioLASCO, Taipei, Taiwan). All animals were maintained in pathogen free sterile isolators and in a controlled atmosphere (25±1° C. at 50% relative humidity) and with a 12 h light-12 h dark cycle according to institutional guidelines. Animals were fed with standard AIN76 diet and all food, water, caging, and bedding were sterilized prior to use. Animals had free access to food and water at all times. Food cups were replenished with fresh diet every day. All animal experimental protocol used in this study was approved by Institutional Animal Care and Use Committee of the National Kaohsiung Marine University (IACUC, NKMU, #099AAA902, Validity dates: Jan. 1, 2009 Jul. 31, 2012). After 1 week of acclimation, colon cancer COLO 205 cells (5×10^6) in 0.2 mL PBS were injected subcutaneously between the scapulae of each nude mouse. After transplantation, tumor size was measured using calipers, and the tumor volume was estimated according to the following formula: tumor volume […]=L×W2/2, where L is the length and W is the width. Once tumors reached a mean size of […], mice were randomly divided into three groups (6 animals/group). Mice were i.p. injection with pterostilbene or 3-hydroxypterostilbene (10 mg/kg/d, respectively) for 15 days, while control animals were received injection of corn oil. The diet intake and body weight of each animal was monitored every day. The tumor volume was assessed and recorded every 5 days using caliper measurements. After 15 days, the mice were sacrificed by […] and the liver, kidneys, spleen and solid tumors were excised immediately and weighed. Average tumor volume and tumor weight of each group were represent the mean±standard deviation (SD). Average tumor volumes were recorded during the treatment and average tumor weights were measured at the end of experiment. Six samples were analyzed in each group, and values represent the mean±SD. *P<0.05 and **P<0.01, compared with control group. #P<0.05, compared with pterostilbene treated group. The tumor tissues were cut into several portion for western blot analysis or stored at −80° C. […] Furthermore, in mice receiving these treatment regimens, no gross signs of toxicity were observed during visible inspections of general appearance and microscopic examinations of individual organs. • 2.

HT-29 cells = experiment: MTT cell viability assay, HT29; assay type: cell-based; conditions: Homo sapiens; HT-29, MTT, 24 h
Method: as §1, §2

HCT-116 cells = experiment: MTT cell viability assay, HCT116; assay type: cell-based; conditions: Homo sapiens; HCT-116, MTT, 24 h
Method: as §1, §2

Question: How did the IC50 (COLO 205 cells [1]) turn out when `COc1cc(/C=C/c2ccc(O)cc2)cc(OC)c1` [Pterostilbene, pterostilbene] was run?
Answer: Its IC50 is 33.4 ± 0.2 µM.

Question: What about the “DiOC6 fluorescence intensity (mitochondrial membrane potential)” value (COLO 205 cells [2]) of the same compound?
Answer: The value was 117.

Question: And the IC50 [3]?
Answer: Its IC50 is greater than 20 µM.

Question: And the “percentage of apoptotic COLO 205 cells (subG1)” value (shortened to “percentage”) (COLO 205 cells [4]; 5 μM)?
Answer: The value was 6.2%.

Question: And the “percentage” value (COLO 205 cells [4]; 10 μM)?
Answer: Its value is 8.4%.

Question: What about the “percentage” value (COLO 205 cells [4]; 25 μM) of the same compound?
Answer: The value was 10.2%.

Question: What about the “percentage” value (COLO 205 cells [4]; 50 μM) of the same compound?
Answer: The value was 14.8%.

Question: What about the “mean DCFHDA fluorescence intensity (ROS)” value (COLO 205 cells [5]) of the same compound?
Answer: Its value is 141.

Question: What about the “side effects or toxicity (body and organ weights, gross signs)” value [6] of the same compound?
Answer: The value was “no noticeable side effects or toxicity”.

Question: What about the IC50 (HT-29 cells) of the same compound?
Answer: Its IC50 is 80.6 ± 3.3 µM.

Question: What about the IC50 (HCT-116 cells) of the same compound?
Answer: Its IC50 is 47.1 ± 0.6 µM.
